Results as given in paper PMC2936419, “Engineering of N. benthamiana L. plants for production of N-acetylgalactosamine-glycosylated proteins - towards development of a plant-based platform for production of protein therapeutics with mucin type O-glycosylation” (BMC Biotechnology, 2010).

Molecular target: T1, human GalNAc-T2 (Homo sapiens, UniProt Q10471)
T1 construct: gene GALNT2; full coding region, untagged (pH7WG2:GNT2), stably expressed in Nicotiana benthamiana; microsomal fraction; ~65 kDa
T1 sequence (Q10471 whole entry): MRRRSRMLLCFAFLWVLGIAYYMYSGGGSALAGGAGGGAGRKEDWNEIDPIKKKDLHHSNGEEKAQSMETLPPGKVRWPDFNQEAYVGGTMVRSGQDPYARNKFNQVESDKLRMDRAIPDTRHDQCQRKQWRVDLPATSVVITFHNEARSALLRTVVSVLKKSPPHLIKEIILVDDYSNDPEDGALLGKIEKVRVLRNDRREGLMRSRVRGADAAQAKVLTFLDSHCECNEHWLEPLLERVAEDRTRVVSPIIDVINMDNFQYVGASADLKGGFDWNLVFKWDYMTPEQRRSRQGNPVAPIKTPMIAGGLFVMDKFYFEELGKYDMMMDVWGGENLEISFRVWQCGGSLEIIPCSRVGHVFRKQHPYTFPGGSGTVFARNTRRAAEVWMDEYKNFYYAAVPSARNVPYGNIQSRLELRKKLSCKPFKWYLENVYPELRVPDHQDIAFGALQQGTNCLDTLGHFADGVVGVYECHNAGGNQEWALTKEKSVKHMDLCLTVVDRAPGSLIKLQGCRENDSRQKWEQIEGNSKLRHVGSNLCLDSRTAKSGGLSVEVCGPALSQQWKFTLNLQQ
Assay: GalNAc transfer to hCG-beta peptide; RP-HPLC, MALDI-TOF MS, radioactive assay
Type: biochemical
Conditions: donor with acceptor hCG-beta peptide 113-136 (500 ug in 100 ul); 10 mM MnCl2, 25 mM Tris HCl pH 7.4, 0.25% Triton X-100, 37 C; microsomes; control-plant microsomes as negative control; also 3H-labelle

## CC(=O)N[C@H]1[C@@H](OP(=O)(O)OP(=O)(O)OC[C@H]2O[C@@H](n3ccc(=O)[nH]c3=O)[C@H](O)[C@@H]2O)O[C@H](CO)[C@H](O)[C@@H]1O [UDP-GalNAc]
  GalNAc transfer to hCG-beta peptide; RP-HPLC, MALDI-TOF MS, radioactive assay: plant microsomal fraction as an enzyme source, UDP-GalNAc as the donor
